Results: the NIST ThermoML archive (doi:10.1021/je500804j)

Experiment: mn = molality of the nth substance listed, in mol/kg
Settings: 101 kPa, Liquid, Alternating current cell with electrodes

CCCCCCCC[N+](C)(C)CCCCCCCCCCCC[N+](C)(C)CCCCCCCC.[Br-].[Br-] + O
electrical conductivity [S/m]
Settings	318.15 K	323.15 K
m1 = 0.00357	–	0.08471
m1 = 0.00693	–	0.1849
m1 = 0.01009	–	0.2444
m1 = 0.01308	–	0.3157
m1 = 0.01591	–	0.3898
m1 = 0.01801	0.3868	–
m1 = 0.01859	–	0.436
m1 = 0.01939	0.4168	–
m1 = 0.02073	0.43	–
m1 = 0.02113	–	0.483
m1 = 0.02204	0.4546	–
m1 = 0.0228	0.465	–
m1 = 0.02355	–	0.5236
m1 = 0.02356	0.4755	–
m1 = 0.02431	0.4857	–
m1 = 0.02577	0.5063	–
m1 = 0.02585	–	0.561
m1 = 0.02648	0.5133	–
m1 = 0.02718	0.5232	–
m1 = 0.02787	0.5323	–
m1 = 0.02803	–	0.5895
m1 = 0.02856	0.5407	–
m1 = 0.02909	–	0.6082
m1 = 0.02923	0.5499	–
m1 = 0.02989	0.5578	–
m1 = 0.03012	–	0.623
m1 = 0.03113	–	0.6393
m1 = 0.03119	0.5732	–
m1 = 0.03211	–	0.6494
m1 = 0.03245	0.5881	–
m1 = 0.03307	0.5997	0.6638
m1 = 0.03368	0.6044	–
m1 = 0.03401	–	0.6772
m1 = 0.03428	0.6091	–
m1 = 0.03488	0.6155	–
m1 = 0.03512	–	0.6913
m1 = 0.03546	0.6234	–
m1 = 0.03566	–	0.6951
m1 = 0.03604	0.6307	–
m1 = 0.03619	–	0.6993
m1 = 0.03661	0.6379	–
m1 = 0.03671	–	0.7037
m1 = 0.03717	0.6434	–
m1 = 0.03775	–	0.7171
m1 = 0.03825	–	0.7266
m1 = 0.03828	0.655	–
m1 = 0.03875	–	0.7317
m1 = 0.03918	0.6646	–
m1 = 0.03925	–	0.7354
m1 = 0.03973	–	0.7413
m1 = 0.04006	0.6728	–
m1 = 0.04069	–	0.7517
m1 = 0.04092	0.681	–
m1 = 0.04116	–	0.7566
m1 = 0.04162	–	0.7617
m1 = 0.04176	0.6915	–
m1 = 0.04208	–	0.7694
m1 = 0.04254	–	0.7737
m1 = 0.04259	0.6986	–
m1 = 0.04328	–	0.7801
m1 = 0.04401	–	0.7896
m1 = 0.04419	0.7143	–
m1 = 0.04472	–	0.8
m1 = 0.04542	–	0.8049
m1 = 0.04573	0.732	–
m1 = 0.04611	–	0.8129
m1 = 0.04678	–	0.8211
m1 = 0.04721	0.7463	–
m1 = 0.04745	–	0.831
m1 = 0.0481	–	0.8348
m1 = 0.04863	0.7603	–
m1 = 0.04936	–	0.8479
m1 = 0.05001	0.7719	–
m1 = 0.05058	–	0.8638
m1 = 0.05133	0.7858	–
m1 = 0.05176	–	0.8724
